Measured values from patent publication US9212168B2 (priority 2011, dated 2015).

Key:
HCV genotype 1b replicon = HCV genotype 1b replicon assay (Renilla luciferase readout); assay type: cell-based, hepatitis C virus; details: for Genotype 1b: HCV genotype 1b replicon; for EC50: Hepatitis C virus, read-out: Genotype 1b
Description: Assay 1: HCV Genotype 1b Replicon Assay
The HCV genotype 1b replicon cell line was obtained from Apath LLC (Brooklyn, N.Y.) (APC144; Huh7 cell background). This subgenomic replicon contains the N-terminus of the HCV core protein fused to the neomycin-resistance selectable marker. The EMCV IRES lies downstream and drives expression of humanized Renilla luciferase fused to the non-structural proteins NS3-NS5B. This cell line was used to determine compound potency using the luciferase activity readout as a measurement of compound inhibition of replicon levels.
Cells were grown at 37° C. in a 5% CO2 humidified incubator in DMEM (Invitrogen) with 10% FBS (HyClone), 1×NEAA (Invitrogen), 1× Pen-Strep (Invitrogen), and 500 μg/mL G418 (Invitrogen). On day 1 of the assay, cells were plated at 10,000 cells/well in white 96-well tissue culture plates (Costar) in 200 μL media lacking G418. Four hours later, once the cells have adhered, the media was removed and replaced with media (no G418) containing dose-responses of test compounds. Compounds were initially diluted in DMSO and then diluted another 200× in media to bring the final DMSO concentration down to 0.5%. The cells were incubated with test compounds for 48 hours. At the end of the incubation period, media and compound were removed from the plates and the luciferase activity was determined using Promega Renilla-Glo reagents.
To analyze the data, the luciferase activity was plotted vs. the compound concentration, and EC50 values were determined from a 4-parameter robust fit model with the GraphPad Prism software package (GraphPad Software, Inc., San Diego, Calif.). Results are expressed as the negative decadic logarithm of the EC50 value, pEC50.
Test compounds having a higher pEC50 value in this assay show greater inhibition of HCV genotype 1b replication.

HCV genotype 1a replicon = HCV genotype 1a replicon assay (NS3 protease activity readout); assay type: cell-based, hepatitis C virus; details: for Genotype 1a: HCV genotype 1a replicon; for EC50: Hepatitis C virus, read-out: Genotype 1a, HCV genotype 1a replicon
Procedure, shortened: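 EC50 values came from a 4-parameter robust fit of fluorescence (ex 340, em 509 nm) produced by NS3-specific protease in lysates, assayed with 15 μM FRET substrate for 20 min at 37° C, after 48 or 72 hours of compound exposure (0.5% DMSO) of Huh7.5-derived APC89 genotype 1a replicon cells.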

| Structure (SMILES) | Genotype 1b (HCV genotype 1b replicon) | Genotype 1a (HCV genotype 1a replicon) | EC50 (HCV genotype 1b replicon) [nM] | EC50 (HCV genotype 1a replicon) [nM] |
| --- | --- | --- | --- | --- |
| COC(=O)N[C@H](C(=O)N1C[C@@H](C)C[C@H]1c1nc(-c2ccc(-c3ccc(C(=O)Nc4ccc(N5CCN(C(=O)[C@H]6CC6(C)C)C[C@H]5C)nc4)cc3)cc2)c(Cl)[nH]1)C1CCOCC1 [Example 22-11] | D (D represents pEC50>10 (EC50<0.1 nM)) | D (D represents pEC50>10 (EC50<0.1 nM)) |  |  |
| CNC(=O)N1C[C@@H](C)N(c2ccc(NC(=O)c3ccc(-c4ccc(-c5c[nH]c([C@@H]6C[C@H](C)CN6C(=O)[C@@H](NC(=O)OC)C(C)C)n5)cc4)c(OC(F)(F)F)c3)cn2)C[C@@H]1C [Example 4-14] | D (D represents pEC50>10 (EC50<0.1 nM)) | C (C represents pEC50 between and 9 and about 10, (EC50 between 1 nM and 0.1 nM)) |  |  |
| COC(=O)NC(C(=O)N1C(C)CCC1c1nc(-c2ccc(-c3cc(Cl)c(NC(=O)c4ccc(N5CCN(C(=O)C6CC6(C)C)CC5C)nc4)cc3OC(F)(F)F)cc2)c[nH]1)C(C)C (stereo not shown) [Example 17-4] | D (D represents pEC50>10 (EC50<0.1 nM)) | D (D represents pEC50>10 (EC50<0.1 nM)) |  |  |
| COC(=O)N[C@H](C(=O)N1C[C@@H](C)C[C@H]1c1nc(-c2ccc(-c3cc(F)c(NC(=O)c4ccc(N5C[C@H](C)N(C(=O)c6c[nH]cn6)C[C@H]5C)nc4)cc3OC(F)(F)F)cc2)c[nH]1)C(C)C [Example 1-14] | D (D represents pEC50>10 (EC50<0.1 nM)) | D (D represents pEC50>10 (EC50<0.1 nM)) |  |  |
| CNC(=O)N1CCN(c2ccc(C(=O)Nc3ccc(-c4ccc(-c5c[nH]c([C@@H]6C[C@H](N(C)C)CN6C(=O)[C@@H](NC(=O)OC)C(C)C)n5)cc4)c(C)c3)cn2)[C@H](C)C1 [Example 2-5] | D (D represents pEC50>10 (EC50<0.1 nM)) | C (C represents pEC50 between and 9 and about 10, (EC50 between 1 nM and 0.1 nM)) |  |  |
| COC(=O)N[C@H](C(=O)N1C[C@@H](OC)C[C@H]1c1nc(-c2ccc(-c3cc(F)c(NC(=O)c4ccc(N5CCN(C(=O)C(C)(C)CO)C[C@H]5C)nc4)cc3OC(F)(F)F)cc2)c[nH]1)C(C)C [Example 27-6] | D (D represents pEC50>10 (EC50<0.1 nM)) | D (D represents pEC50>10 (EC50<0.1 nM)) |  |  |
| COC(=O)N[C@H](C(=O)N1[C@@H]2C[C@@H]2C[C@H]1c1nc(-c2ccc(-c3cc(Cl)c(NC(=O)c4ccc(N5CCN(C(=O)C(C)(C)C)C[C@H]5C)nc4)cc3OC(F)(F)F)cc2)c[nH]1)C(C)C [Example 8-2] |  |  | < 0.1 | < 0.1 |
| COC(=O)N[C@H](C(=O)N1C[C@@H](C)C[C@H]1c1nc(-c2ccc(-c3cc(Cl)c(NC(=O)c4ccc(N5CCN(C(=O)c6c[nH]cn6)C[C@H]5C)nc4)cc3OC(F)(F)F)cc2)c[nH]1)C(C)C [Example 1-18] | D (D represents pEC50>10 (EC50<0.1 nM)) | D (D represents pEC50>10 (EC50<0.1 nM)) |  |  |
| COC(=O)NC(C(=O)N1CC(OC)CC1c1nc(-c2ccc(-c3cc(F)c(NC(=O)c4ccc(N5CCN(C(=O)C(C)(C)C)CC5C)nc4)cc3OC(F)(F)F)cc2)c[nH]1)C(C)OC (stereo not shown) [Example 16-5] | D (D represents pEC50>10 (EC50<0.1 nM)) | D (D represents pEC50>10 (EC50<0.1 nM)) |  |  |
| COC(=O)NC(C(=O)N1CC(C)CC1c1nc(-c2ccc(-c3ccc(NC(=O)c4ccc(N5CCN(C(=O)C(C)(C)CO)CC5C)nc4)cc3OC(F)(F)F)cc2)c[nH]1)C(C)(C)O (stereo not shown) [Example 13-28] | D (D represents pEC50>10 (EC50<0.1 nM)) | D (D represents pEC50>10 (EC50<0.1 nM)) |  |  |
| COC(=O)N[C@H](C(=O)N1C[C@@H](C)C[C@H]1c1nc(-c2ccc(-c3cc(Cl)c(NC(=O)c4ccc(N5CCN(C(=O)NN6CCOC6=O)C[C@H]5C)nc4)cc3OC(F)(F)F)cc2)c[nH]1)C(C)C [Example 12-17] |  |  | < 0.1 | < 0.1 |
| COC(=O)N[C@H](C(=O)N1C[C@@H](C)C[C@H]1c1nc(-c2ccc(-c3cc(F)c(NC(=O)c4ccc(N5CCN(C(=O)C(C)(C)C)C[C@H]5C)nc4)cc3OC(F)(F)F)cc2)c[nH]1)[C@H](C)O [Example 13-20] |  |  | < 0.1 | < 0.1 |
| COCC(=O)N1CCC[C@@]1(C)C(=O)N1C[C@@H](C)N(c2ccc(C(=O)Nc3cc(OC(F)(F)F)c(-c4ccc(-c5c[nH]c([C@@H]6C[C@H](OC)CN6C(=O)[C@@H](NC(=O)OC)C6CCOCC6)n5)cc4)cc3Cl)cn2)C[C@@H]1C [Example 28-17] | D (D represents pEC50>10 (EC50<0.1 nM)) | D (D represents pEC50>10 (EC50<0.1 nM)) |  |  |
| COC(=O)N[C@H](C(=O)N1C[C@@H](C)C[C@H]1c1nc(-c2ccc(-c3cc(Cl)c(C(=O)Nc4ccc(N5CCN(C(=O)C(C)(C)C)[C@H](C)C5)nc4)cc3OC(F)(F)F)cc2)c[nH]1)C1CCOCC1 [24-3] | D (D represents pEC50>10 (EC50<0.1 nM)) | C (C represents pEC50 between and 9 and about 10, (EC50 between 1 nM and 0.1 nM)) |  |  |
| COC(=O)N[C@H](C(=O)N1C[C@@H](C)C[C@H]1c1nc(-c2ccc(-c3ccc(C(=O)Nc4ccc(N5CCN(C(=O)[C@H]6CC6(C)C)C[C@H]5C)nc4)cc3)cc2)c[nH]1)C(C)C [Example 4-1] | D (D represents pEC50>10 (EC50<0.1 nM)) | D (D represents pEC50>10 (EC50<0.1 nM)) |  |  |
| COC(=O)N[C@H](C(=O)N1C[C@@H](C)C[C@H]1c1nc(-c2ccc(-c3cc(F)c(NC(=O)c4ccc(N5CCN(C(=O)C(C)(C)CO)C[C@H]5C)nc4)cc3OC(F)(F)F)cc2)c[nH]1)C1CCOCC1 [Example 13-27] |  |  | < 0.1 | < 0.1 |
| COC(=O)N[C@H](C(=O)N1C[C@@H](C)C[C@H]1c1nc(-c2ccc(-c3ccc(NC(=O)c4ccc(N5CCN(C(=O)[C@H]6CC6(C)C)C[C@H]5C)nc4)cc3C(F)(F)F)cc2)c[nH]1)C(C)C [Example 1-62] | D (D represents pEC50>10 (EC50<0.1 nM)) | D (D represents pEC50>10 (EC50<0.1 nM)) |  |  |
| COC(=O)N[C@H](C(=O)N1C[C@@H](C)C[C@H]1c1nc(-c2ccc(-c3cc(F)c(NC(=O)c4ccc(N5CCN(C(=O)[C@H]6CC6(C)C)C[C@H]5C)nc4)cc3C(F)(F)F)cc2)c[nH]1)C(C)C [Example 1-5] | D (D represents pEC50>10 (EC50<0.1 nM)) | D (D represents pEC50>10 (EC50<0.1 nM)) |  |  |
| COC(=O)N[C@H](C(=O)N1C[C@@H](C)C[C@H]1c1nc(-c2ccc(-c3cc(F)c(NC(=O)c4ccc(N5CCN(C(=O)[C@H]6CC6(C)C)C[C@H]5C)nc4)cc3F)cc2)c[nH]1)C(C)C [Example 1-81] | D (D represents pEC50>10 (EC50<0.1 nM)) | D (D represents pEC50>10 (EC50<0.1 nM)) |  |  |
| COC(=O)N[C@H](C(=O)N1CC2(C[C@H]1c1nc(-c3ccc(-c4ccc(C(=O)Nc5ccc(N6CCN(C(=O)C7CC7(C)C)C[C@H]6C)nc5)cc4)cc3)c[nH]1)OCCO2)C(C)C (stereo partly shown) [Example 6-1] |  |  | < 0.1 | 0.1 to 1 |
| COC(=O)N[C@H](C(=O)N1C[C@@H](N(C)C)C[C@H]1c1nc(-c2ccc(-c3ccc(NC(=O)c4ccc(N5CCN(C(=O)[C@H]6CC6(C)C)C[C@H]5C)nc4)cc3)cc2)c[nH]1)C(C)C [Example 2-3] | D (D represents pEC50>10 (EC50<0.1 nM)) | D (D represents pEC50>10 (EC50<0.1 nM)) |  |  |
| COC(=O)N[C@H](C(=O)N1C[C@@H](C)C[C@H]1c1nc(-c2ccc(-c3cc(Cl)c(C(=O)Nc4ccc(N5CCN(C(=O)[C@H]6CC6(C)C)C[C@H]5C)nc4)cc3OC(F)(F)F)cc2)c[nH]1)C1CCOCC1 [Example 22-5] | D (D represents pEC50>10 (EC50<0.1 nM)) | D (D represents pEC50>10 (EC50<0.1 nM)) |  |  |
| COC(=O)N[C@H](C(=O)N1C[C@@H](C)C[C@H]1c1nc(-c2ccc(-c3cc(Cl)c(NC(=O)c4ccc(N5CCN(C(=O)C(C)(C)C)C[C@H]5C)nc4)cc3C(F)(F)F)cc2)c[nH]1)C1CCOCC1 [Example 19-2] | D (D represents pEC50>10 (EC50<0.1 nM)) | D (D represents pEC50>10 (EC50<0.1 nM)) |  |  |
| COC(=O)NC(C(=O)N1CC(OC)CC1c1nc(-c2ccc(-c3ccc(NC(=O)c4ccc(N5CCN(C(=O)C(C)(C)CO)CC5C)nc4)cc3OC(F)(F)F)cc2)c[nH]1)C(C)O (stereo not shown) [Example 16-15] | D (D represents pEC50>10 (EC50<0.1 nM)) | C (C represents pEC50 between and 9 and about 10, (EC50 between 1 nM and 0.1 nM)) |  |  |
| COC(=O)N[C@H](C(=O)N1C[C@@H](C)C[C@H]1c1nc(-c2ccc(-c3cc(Cl)c(NC(=O)c4ccc(N5CCN(C(=O)C(C)(C)C)C[C@H]5C)nc4)cc3C(F)(F)F)cc2)c[nH]1)C(C)C [Example 1-61] | D (D represents pEC50>10 (EC50<0.1 nM)) | D (D represents pEC50>10 (EC50<0.1 nM)) |  |  |
| COC(=O)N[C@H](C(=O)N1C[C@@H](C)C[C@H]1c1nc(-c2ccc(-c3cc(Cl)c(NC(=O)c4ccc(N5C[C@H](C)N(C(=O)[C@H]6CC6(C)C)C[C@H]5C)nc4)cc3OC(F)(F)F)cc2)c[nH]1)C(C)C [Example 1-20] | D (D represents pEC50>10 (EC50<0.1 nM)) | D (D represents pEC50>10 (EC50<0.1 nM)) |  |  |
